From the supplement of paper PMC10307832

Assays:
Assay in all cases: relative viability (nuclei count vs DMSO), 5 days (fraction); higher = more cells survive
[1] = compound: CCn1c(-c2nonc2N)nc2c(C#CC(C)(C)O)ncc(OC[C@H]3CCCNC3)c21 + Cc1nc(NC(=O)N2CCC[C@H]2C(N)=O)sc1-c1ccnc(C(C)(C)C(F)(F)F)c1 [Alpelisib] (partner 2 µM)
Summary of the method: (§1)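 Relative viability was taken as the ratio of nuclei in treated wells to nuclei in vehicle wells. Lung cancer cell lines in 1536-well plates received compounds by pin tool one day after seeding, either one drug alone or a fixed anchor-drug dose plus five library-drug doses (not always all listed) in √10 steps. Nuclei were counted on 4× images after 5 days of treatment, and values are medians of duplicate plates.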

[2] = compound: CCn1c(-c2nonc2N)nc2c(C#CC(C)(C)O)ncc(OC[C@H]3CCCNC3)c21 + N=C(N)NC(=N)NCCc1ccccc1 [Phenformin] (partner 250 µM)
Summary of the method: as §1

[3] = compound: CCn1c(-c2nonc2N)nc2c(C#CC(C)(C)O)ncc(OC[C@H]3CCCNC3)c21 + Cc1cc(Nc2cc(N3CCN(C)CC3)nc(Sc3ccc(NC(=O)C4CC4)cc3)n2)n[nH]1 [Tozasertib] (partner 0.1 µM)
Summary of the method: as §1

[4] = compound: CCn1c(-c2nonc2N)nc2c(C#CC(C)(C)O)ncc(OC[C@H]3CCCNC3)c21 + CC(=O)c1c(C)c2cnc(Nc3ccc(N4CCNCC4)cn3)nc2n(C2CCCC2)c1=O [Palbociclib] (partner 0.5 µM)
Summary of the method: as §1

Cell Line	relative viability ([1]; first compound 0.01 µM)	relative viability ([1]; first compound 0.03162 µM)	relative viability ([1]; first compound 0.1 µM)	relative viability ([1]; first compound 0.3162 µM)	relative viability ([1]; first compound 1 µM)	relative viability ([2]; first compound 0.01 µM)	relative viability ([2]; first compound 0.03162 µM)	relative viability ([2]; first compound 0.1 µM)	relative viability ([2]; first compound 0.3162 µM)	relative viability ([2]; first compound 1 µM)	relative viability ([3]; first compound 0.01 µM)	relative viability ([3]; first compound 0.03162 µM)	relative viability ([3]; first compound 0.1 µM)	relative viability ([3]; first compound 0.3162 µM)	relative viability ([3]; first compound 1 µM)	relative viability ([4]; first compound 0.01 µM)	relative viability ([4]; first compound 0.03162 µM)	relative viability ([4]; first compound 0.1 µM)	relative viability ([4]; first compound 0.3162 µM)	relative viability ([4]; first compound 1 µM)
HCC-366	0.362	0.427	0.293	0.475	0.386	0.573	0.606	0.637	0.62	0.617	0.135	0.12	0.194	0.111	0.129	0.378	0.419	0.396	0.359	0.344
HCC-827	1.01	0.93	0.948	1	1.05	0.395	0.37	0.388	0.402	0.402	0.391	0.47	0.383	0.449	0.43	0.473	0.507	0.412	0.431	0.466
HOP-62	0.966	1.12	0.819	0.951	1.13	0.662	0.687	0.635	0.649	0.687	0.369	0.316	0.308	0.406	0.404	0.414	0.436	0.308	0.383	0.395
IA-LM	0.728	0.733	0.987	0.654	0.613															
LC-2-ad	0.898	0.973	0.925	0.823	0.565	0.571	0.523	0.556	0.537	0.614	0.457	0.442	0.474	0.44	0.451	0.547	0.455	0.546	0.502	0.462
LCLC-97TM1		0.278	0.224	0.235	0.257	0.375	0.49	0.444	0.435	0.427	0.203	0.31	0.211	0.271	0.204	0.19	0.245	0.234	0.205	0.2
LCLC-103H	0.984	0.945	1	0.848	0.953	0.323	0.355	0.33	0.329	0.327	0.41	0.555	0.432	0.472	0.453	0.511	0.475	0.503	0.48	0.352
LK-2	1.24	1.27	0.984	0.916	1.01	0.515	0.392			0.455	0.165	0.171			0.184	0.641	0.714	0.556	0.625	0.887
LOU-NH91	0.751	0.795	0.736	0.706	0.732	0.683	0.566	0.686	0.607	0.635	0.702	0.763	0.634	0.665	0.732	0.511	0.541	0.527	0.535	0.479
LU99A	0.586	0.558	0.538	0.504	0.47	0.847	0.839	0.774	0.748	0.837	0.296	0.268	0.296	0.308	0.315	0.37	0.45	0.388	0.406	0.423
LXF-289	1.04	1.02	1.01	0.983	1.04	0.511	0.54	0.507	0.511	0.534	0.218	0.194	0.169	0.184	0.197	0.63	0.568	0.608	0.581	0.605
NCI-H522						0.636	0.648	0.629	0.576	0.624	0.56	0.55	0.52	0.517	0.564	0.9	1.12	1.22	0.781	0.916
NCI-H596	0.365	0.522	0.482	0.487	0.503	0.74	0.7	0.727	0.744	0.761	1.07	0.886	0.862	0.951	0.792					
NCI-H1299	1.05	1.06	1.05	1.03	0.968															
NCI-H1563	0.872	0.913	0.913	0.837	0.826	0.623	0.618	0.701	0.63	0.649										
NCI-H1648												0.527	0.466	0.444	0.574	0.266	0.272	0.235	0.262	0.317
NCI-H1650						0.457	0.478	0.404	0.277	0.303	0.398	0.474	0.44	0.403	0.44	0.382	0.291	0.396	0.153	0.276
NCI-H1703	0.333	0.374	0.392	0.28	0.299															
NCI-H1792	0.776	0.697	0.667	0.596	0.791	0.203	0.291	0.258	0.262	0.299						0.607		0.601	0.586	0.701
NCI-H2342						0.532	0.627	0.598	0.545	0.574	0.521	0.588	0.466	0.572	0.612	0.521	0.549	0.551	0.679	0.512
SW 900						0.505	0.621	0.671	0.601	0.49	0.626	0.747	0.646	0.561	0.579	0.558	0.557	0.483	0.649	0.444
